The values that follow come from patent publication US7138530B2, “Thiophene amidines, compositions thereof, and methods of treating complement-mediated diseases and conditions” (3-Dimensional Pharmaceuticals, Inc., priority 2002, dated 2006).

The assay addresses T1, activated human C1s (Homo sapiens, UniProt P09871).
T1 construct: purchased Calbiochem (La Jolla, Calif.)
T1 sequence (P09871 438-688 limits assumed): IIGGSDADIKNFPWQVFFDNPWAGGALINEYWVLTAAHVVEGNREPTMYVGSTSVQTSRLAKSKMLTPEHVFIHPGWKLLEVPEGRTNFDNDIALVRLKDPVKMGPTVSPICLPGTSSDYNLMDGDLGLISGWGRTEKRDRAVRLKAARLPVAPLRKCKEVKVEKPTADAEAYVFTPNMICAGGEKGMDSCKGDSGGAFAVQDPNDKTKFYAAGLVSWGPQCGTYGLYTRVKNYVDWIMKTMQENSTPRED
T1 sequence (P09871 16-437 partner limits assumed): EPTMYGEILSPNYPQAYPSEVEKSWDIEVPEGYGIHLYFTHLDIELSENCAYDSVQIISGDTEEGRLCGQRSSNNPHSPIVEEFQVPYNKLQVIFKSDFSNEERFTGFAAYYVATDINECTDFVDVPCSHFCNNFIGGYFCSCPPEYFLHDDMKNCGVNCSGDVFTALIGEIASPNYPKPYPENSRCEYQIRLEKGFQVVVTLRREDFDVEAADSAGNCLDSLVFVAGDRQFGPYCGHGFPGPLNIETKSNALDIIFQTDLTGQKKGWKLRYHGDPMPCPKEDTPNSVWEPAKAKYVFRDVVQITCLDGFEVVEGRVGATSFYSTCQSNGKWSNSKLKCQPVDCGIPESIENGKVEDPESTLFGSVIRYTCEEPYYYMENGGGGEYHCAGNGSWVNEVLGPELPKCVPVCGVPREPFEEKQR
The assay is described as follows: In vitro inhibition of C1s: Ki determination, C1s-catalyzed hydrolysis of Z-Gly-Arg-S-Bzl detected with DTNB. The format is biochemical. To be noted: purified activated human C1s 2.3 nM, Z-Gly-Arg-S-Bzl 45 μM, DTNB 200 μM, pH 7.5, 37° C., absorbance at 405 nm. The procedure: Reagents: All buffer salts were obtained from Sigma Chemical Company (St. Louis, Mo.), and were of the highest purity available. DTNB was purchased from Pierce (Rockford, Ill.). Z-Gly-Arg-S-Bzl was purchased from Enzyme Systems Products (Livermore, Calif.). Activated human C1s was purchased from Calbiochem (La Jolla, Calif.).
Test compounds are prepared as a 10 μM solution in DMSO. Dilutions are prepared in DMSO yielding 7 final concentrations encompassing a 700-fold concentration range.
Reactions were initiated by the addition of a 10 μL aliquot of the enzyme, and the absorbance increase at 405 nm is continuously recorded for 15 minutes in a Molecular Devices plate reader. Final DMSO concentration was 4.3%. […] The ratio of the velocity (rate of change in absorbance as a function of time) for a sample containing no test compound is divided by the velocity of a sample containing test compound, and is plotted as a function of test compound concentration. The data are fit to a linear regression, and the value of the slope of the line calculated. The inverse of the slope is the experimentally determined Ki value.

`CSc1sc(C(=N)N)cc1S(=O)(=O)c1cccc(-c2ccsc2)c1` [Example 77, 5-Methylsulfanyl-4-(3-thiophen-3-yl-benzenesulfonyl)-thiophene-2-carboxamidine] yielded a Ki of 0.006 to 0.023 µM.

`CSc1sc(C(=N)N)cc1S(=O)(=O)c1cccc(-c2c(C)cc(NC(=N)N)cc2NC(=O)NCCCCCC(=O)O)c1` [Example 259] came in with a Ki of 0.006 to 0.023 µM.

Compound `CSc1sc(C(=N)NC(=O)OC(C)(C)C)cc1S(=O)(=O)c1cccc(-c2ccc(S(C)(=O)=O)cc2)c1` [Example 57, {Imino-[4-(4′-methanesulfonyl-biphenyl-3-sulfonyl)-5-methylsulfanyl-thiophen-2-yl]-methyl}-carbamic acid tert-butyl ester] registered an inhibition constant (Ki) of 0.006 to 0.023 µM.
